Assay results reported in ChEMBL document CHEMBL1153072, “Synthesis and structure-activity relationship of dicationic diaryl ethers as novel potent anti-MRSA and anti-VRE agents” (2009).
≈ marks a conversion by molar mass, not a printed value.

Assays:
Format in all cases: functional
[1] = test system: Bacillus cereus; test: Antibacterial activity against Bacillus cereus ATCC 11778
[2] = test system: Clostridium perfringens; test: Antibacterial activity against Clostridium perfringens ATCC 10388
[3] = test system: Streptococcus pneumoniae; test: Antibacterial activity against Streptococcus pneumoniae ATCC 6301
[4] = test system: Enterococcus faecium; test: Antibacterial activity against vancomycin-resistant Enterococcus faecium ATCC 700221
[5] = test system: Bacillus subtilis; test: Antibacterial activity against Bacillus subtilis ATCC 23857
[6] = test system: Candida albicans; test: Antifungal activity against Candida albicans ATCC 90028
[7] = test system: Enterococcus faecalis; test: Antibacterial activity against vancomycin-resistant Enterococcus faecalis ATCC 51575
[8] = test system: Bacteroides fragilis; test: Antibacterial activity against […] ATCC 23745
[9] = test system: Staphylococcus epidermidis; test: Antibacterial activity against methicillin-resistant Staphylococcus epidermidis ATCC 51625
[10] = test system: Staphylococcus aureus; test: Antibacterial activity against Staphylococcus aureus ATCC 29213
[11] = test system: Staphylococcus aureus; test: Antibacterial activity against methicillin-resistant Staphylococcus aureus ATCC 33591
[12] = test system: Staphylococcus aureus; test: Antibacterial activity against multidrug resistant Staphylococcus aureus BAA-39
[13] = test system: Staphylococcus epidermidis; test: Antibacterial activity against Staphylococcus epidermidis ATCC 12228

Row | SMILES | MIC [1] [µg/mL] | MIC [2] [µg/mL] | MIC [3] [µg/mL] | MIC [4] [µg/mL] | MIC [5] [µg/mL] | MIC [6] [µg/mL] | MIC [7] [µg/mL] | MIC [8] [µg/mL] | MIC [9] [µg/mL] | MIC [10] [µg/mL] | MIC [11] [µg/mL] | MIC [12] [µg/mL] | MIC [13] [µg/mL]
1 | CN[C@H](CC(C)C)C(=O)N[C@H]1C(=O)N[C@@H](CC(N)=O)C(=O)N[C@H]2C(=O)N[C@H]3C(=O)N[C@H](C(=O)N[C@H](C(=O)O)c4cc(O)cc(O)c4-c4cc3ccc4O)[C@H](O)c3ccc(c(Cl)c3)Oc3cc2cc(c3O[C@@H]2O[C@H](CO)[C@@H](O)[C@H](O)[C@H]2O[C@H]2C[C@](C)(N)[C@H](O)[C@H](C)O2)Oc2ccc(cc2Cl)[C@H]1O [VANCOMYCIN] | ≤ 1 | 0.12 (≈ 0.0828 µM) | 1 (≈ 0.69 µM) | > 64 | 0.12 (≈ 0.0828 µM) | > 32 | > 64 | 4 (≈ 2.76 µM) | – | – | – | – | –
2 | CCN1CCN(C(=N)c2ccc3[nH]c(-c4ccc(Oc5ccc(-c6nc7cc(C(=N)N8CCN(CC)CC8)ccc7[nH]6)cc5)cc4)nc3c2)CC1 | 0.5 (≈ 0.734 µM) | 16 (≈ 23.5 µM) | 0.5 (≈ 0.734 µM) | 1 (≈ 1.47 µM) | 0.5 (≈ 0.734 µM) | 32 (≈ 47 µM) | 1 (≈ 1.47 µM) | 16 (≈ 23.5 µM) | 0.5 (≈ 0.734 µM) | 1 (≈ 1.47 µM) | 1 (≈ 1.47 µM) | 1 (≈ 1.47 µM) | 0.5 (≈ 0.734 µM)
3 | N=C(NC1CCCC1)c1ccc2[nH]c(-c3ccc(Oc4ccc(-c5nc6cc(C(=N)NC7CCCC7)ccc6[nH]5)cc4)cc3)nc2c1 | < 0.06 | 0.25 (≈ 0.401 µM) | < 0.06 | < 0.06 | < 0.06 | 2 (≈ 3.21 µM) | 0.25 (≈ 0.401 µM) | 32 (≈ 51.4 µM) | 0.12 (≈ 0.193 µM) | 0.25 (≈ 0.401 µM) | 0.5 (≈ 0.803 µM) | 0.5 (≈ 0.803 µM) | 0.12 (≈ 0.193 µM)
4 | CC(C)NC(=N)c1ccc2[nH]c(-c3ccc(Oc4ccc(-c5nc6cc(C(=N)NC(C)C)ccc6[nH]5)nc4)cc3)nc2c1 | 0.12 (≈ 0.21 µM) | 0.5 (≈ 0.875 µM) | ≤ 0.06 | ≤ 0.06 | ≤ 0.06 | 4 (≈ 7 µM) | 0.12 (≈ 0.21 µM) | 32 (≈ 56 µM) | 0.12 (≈ 0.21 µM) | 0.5 (≈ 0.875 µM) | 0.5 (≈ 0.875 µM) | 0.5 (≈ 0.875 µM) | 0.12 (≈ 0.21 µM)
5 | CC(C)NC(=N)c1ccc2[nH]c(-c3ccc(Oc4ccc(-c5nc6cc(C(=N)NC(C)C)ccc6[nH]5)cn4)cc3)nc2c1 | 0.12 (≈ 0.21 µM) | 2 (≈ 3.5 µM) | 0.12 (≈ 0.21 µM) | ≤ 0.06 | 0.25 (≈ 0.437 µM) | 2 (≈ 3.5 µM) | 0.25 (≈ 0.437 µM) | > 32 | 0.12 (≈ 0.21 µM) | 1 (≈ 1.75 µM) | 0.5 (≈ 0.875 µM) | 1 (≈ 1.75 µM) | 0.12 (≈ 0.21 µM)
6 | CC(C)NC(=N)c1ccc2[nH]c(-c3ccc(Oc4ccc(-c5nc6cc(C(=N)NC(C)C)ccc6[nH]5)c(C(F)(F)F)c4)cc3)nc2c1 | 0.12 (≈ 0.188 µM) | 0.25 (≈ 0.391 µM) | ≤ 0.06 | ≤ 0.06 | ≤ 0.06 | 4 (≈ 6.26 µM) | 0.12 (≈ 0.188 µM) | 8 (≈ 12.5 µM) | 0.12 (≈ 0.188 µM) | 0.5 (≈ 0.783 µM) | 0.25 (≈ 0.391 µM) | 0.5 (≈ 0.783 µM) | ≤ 0.06
7 | CC1CCN(C(=N)c2ccc3[nH]c(-c4ccc(Oc5ccc(-c6nc7cc(C(=N)N8CCC(C)CC8)ccc7[nH]6)cc5)cc4)nc3c2)CC1 | < 0.06 | 1 (≈ 1.54 µM) | 0.12 (≈ 0.184 µM) | 0.25 (≈ 0.384 µM) | 0.12 (≈ 0.184 µM) | 4 (≈ 6.15 µM) | 0.5 (≈ 0.768 µM) | 4 (≈ 6.15 µM) | 0.12 (≈ 0.184 µM) | 0.25 (≈ 0.384 µM) | 0.25 (≈ 0.384 µM) | 0.25 (≈ 0.384 µM) | 0.12 (≈ 0.184 µM)
8 | N=C(c1ccc2[nH]c(-c3ccc(Oc4ccc(-c5nc6cc(C(=N)N7CCOCC7)ccc6[nH]5)cc4)cc3)nc2c1)N1CCOCC1 | 0.12 (≈ 0.191 µM) | 2 (≈ 3.19 µM) | 0.5 (≈ 0.798 µM) | 0.5 (≈ 0.798 µM) | 0.5 (≈ 0.798 µM) | 16 (≈ 25.5 µM) | 0.5 (≈ 0.798 µM) | 8 (≈ 12.8 µM) | 0.5 (≈ 0.798 µM) | 1 (≈ 1.6 µM) | 0.5 (≈ 0.798 µM) | 0.5 (≈ 0.798 µM) | 0.25 (≈ 0.399 µM)
9 | O=C(O)c1cn(C2CC2)c2cc(N3CCNCC3)c(F)cc2c1=O [CIPROFLOXACIN] | ≤ 0.12 | – | – | > 64 | ≤ 0.12 | – | 0.5 (≈ 1.51 µM) | 0.5 (≈ 1.51 µM) | ≤ 0.12 | 0.5 (≈ 1.51 µM) | ≤ 0.12 | 8 (≈ 24.1 µM) | ≤ 0.12
